In patent US8415342B2, “Besifloxacin ophthalmic composition for the treatment or control of infection” (Bausch & Lomb Incorporated, priority 2008, dated 2013):
Values after ≈ are worked out from the molar mass of the structure shown. Like-named read-outs stand apart in the source and are kept apart here.

Legend:
Assay type in all cases: cell-based
S. aureus [1] = experiment: MIC and MBC:MIC ratio, recent ocular isolates; settings: S. aureus (N = 30), recent ocular isolates
Staphylococcus aureus = experiment: MIC, CLSI broth microdilution, clinical isolates; settings: for MIC50 / MIC90: Staphylococcus aureus
[2] = tested on: Staphylococcus epidermidis; experiment: MIC, CLSI broth microdilution, clinical isolates; settings: for MIC50: Staphylococcus epidermidis
[3] = tested on: Staphylococcus lugdunensis; experiment: MIC, CLSI broth microdilution, clinical isolates; settings: Staphylococcus lugdunensis (N = 15)
[4] = tested on: Staphylococcus saprophyticus; experiment: MIC, CLSI broth microdilution, clinical isolates; settings: Staphylococcus saprophyticus (N = 101)
[5] = tested on: Staphylococcus haemolyticus; experiment: MIC, CLSI broth microdilution, clinical isolates; settings: Staphylococcus haemolyticus (N = 101)
Staphylococcus warneri = experiment: MIC, CLSI broth microdilution, clinical isolates; settings: Staphylococcus warneri (N = 50)
Staphylococcus hominis = experiment: MIC, CLSI broth microdilution, clinical isolates; settings: Staphylococcus hominis (N = 50)
Streptococcus agalactiae = experiment: MIC, CLSI broth microdilution, clinical isolates; settings: Streptococcus agalactiae (N = 100)
Streptococcus pneumoniae = experiment: MIC, CLSI broth microdilution, clinical isolates
Streptococcus pyogenes = experiment: MIC, CLSI broth microdilution, clinical isolates; settings: Streptococcus pyogenes (N = 101)
[6] = tested on: Lancefield group C, F, G streptococci; experiment: MIC, CLSI broth microdilution, clinical isolates; settings: G streptococci (N = 50)
Viridans streptococci = experiment: MIC, CLSI broth microdilution, clinical isolates; settings: Viridans streptococci (N = 156)
Citrobacter koseri = experiment: MIC, CLSI broth microdilution, clinical isolates; settings: Citrobacter koseri (N = 100)
Klebsiella oxytoca = experiment: MIC, CLSI broth microdilution, clinical isolates; settings: Klebsiella oxytoca (N = 50)
Haemophilus influenzae = experiment: MIC, CLSI broth microdilution, clinical isolates; settings: for MIC50 / MIC90: Haemophilus influenzae
Legionella pneumophila = experiment: microbe, parasite or virus in culture
Moraxella catarrhalis = experiment: MIC, CLSI broth microdilution, clinical isolates; settings: Moraxella catarrhalis (N = 101)
Morganella morganii = experiment: MIC, CLSI broth microdilution, clinical isolates; settings: Morganella morganii (N = 51)
S. aureus [7] = experiment: MIC of clinical trial isolates, Studies 373, 433, 434; settings: Staphylococcus aureus
S. epidermidis = experiment: as above; settings: Staphylococcus epidermidis, read-out: MIC90
[8] = Staphylococcus aureus (CNS, N = 16)
[9] = Staphylococcus aureus (CS, N = 14)
[10] = Staphylococcus aureus (all phenotypes, N = 30)
[11] = MRSA, Staphylococcus aureus (MRSA, N = 11)
[12] = MSSA, Staphylococcus aureus (MSSA, N = 19)
[13] = Staphylococcus epidermidis (CNS, N = 6)
[14] = Staphylococcus epidermidis (CS, N = 9)
[15] = Staphylococcus epidermidis (MSSE, N = 6)
[16] = Staphylococcus epidermidis (all phenotypes, N = 15)
[17] = Streptococcus pneumoniae (PSSP, N = 31)
[18] = Haemophilus influenzae (all phenotypes, N = 40)
[19] = Haemophilus influenzae (bla negative, N = 24)
[20] = Haemophilus influenzae (bla positive, N = 16)

With `CC[C@H]1OC(=O)[C@H](C)[C@@H](O[C@H]2C[C@@](C)(OC)[C@@H](O)[C@H](C)O2)[C@H](C)[C@@H](O[C@@H]2O[C@H](C)C[C@H](N(C)C)[C@H]2O)[C@](C)(O)C[C@@H](C)CN(C)[C@H](C)[C@@H](O)[C@]1(C)O` [Azithromycin] the “% S (susceptible isolates, CLSI)” value (S. aureus [1]) was 53.3%, the MIC50 (S. aureus [1]; Staphylococcus aureus) was 1 µg/mL and the MIC90 (S. aureus [1]; Staphylococcus aureus) was over 8 µg/mL. For the same compound, the “% S” value (Staphylococcus aureus; [8]) was 43.8%, the “% S” value (Staphylococcus aureus; [9]) was 64.3% and the “% S” value (Staphylococcus aureus; Staphylococcus aureus (MRSA, N = 11)) was 9.1%. The “% S” value (Staphylococcus aureus; Staphylococcus aureus (MSSA, N = 19)) was 78.9%, the “% S” value (Staphylococcus aureus; [10]) was 53.3% and the MIC50 (Staphylococcus aureus; [11]) was over 8 µg/mL. The MIC90 (Staphylococcus aureus; [11]) was over 8 µg/mL, the MIC50 (Staphylococcus aureus; [12]) was 1 µg/mL (≈ 1.34 µM) and the MIC90 (Staphylococcus aureus; [12]) was over 8 µg/mL. The MIC50 (Staphylococcus aureus; [8]) was over 8 µg/mL, the MIC90 (Staphylococcus aureus; [8]) was over 8 µg/mL and the MIC50 (Staphylococcus aureus; [9]) was 1 µg/mL (≈ 1.34 µM). The MIC90 (Staphylococcus aureus; [9]) was over 8 µg/mL, the MIC50 (Staphylococcus aureus; [10]) was 1 µg/mL (≈ 1.34 µM) and the MIC90 (Staphylococcus aureus; [10]) was over 8 µg/mL. The “% S” value [2, 13] was 16.7%, the “% S” value [2, 14] was 33.3% and the “% S” value ([2]; Staphylococcus epidermidis (MRSE, N = 9)) was 0.0%. For the same compound, the “% S” value [2, 15] was 66.7%, the “% S” value [2, 16] was 26.7% and the MIC90 [2, 16] was over 8 µg/mL. The MIC50 ([2]; MRSE, Staphylococcus epidermidis (MRSE, N = 9)) was over 8 µg/mL, the MIC50 [2, 13] was over 8 µg/mL and the MIC50 [2, 14] was over 8 µg/mL. The MIC50 [2, 15] was 0.5 µg/mL (≈ 0.668 µM), the MIC50 [2, 16] was over 8 µg/mL and the “% S” value [3] was 46.7%. The MIC50 [3] was over 8 µg/mL, the MIC90 [3] was over 8 µg/mL and the “% S” value [4] was 54.5%. The MIC50 [4] was 1 µg/mL (≈ 1.34 µM), the MIC90 [4] was over 8 µg/mL and the “% S” value [5] was 26.7%. The MIC50 [5] was over 8 µg/mL, the MIC90 [5] was over 8 µg/mL and the “% S” value (Staphylococcus warneri) was 34.0%. For the same compound, the MIC50 (Staphylococcus warneri) was over 8 µg/mL, the MIC90 (Staphylococcus warneri) was over 8 µg/mL and the “% S” value (Staphylococcus hominis) was 16.0%. For the same compound, the MIC50 (Staphylococcus hominis) was over 8 µg/mL, the MIC90 (Staphylococcus hominis) was over 8 µg/mL and the “% S” value (Streptococcus agalactiae) was 73.0%. For the same compound, the MIC50 (Streptococcus agalactiae; read-out: MIC50) was 0.06 µg/mL (≈ 0.0801 µM), the MIC90 (Streptococcus agalactiae; read-out: MIC90) was over 8 µg/mL and the “% S” value (Streptococcus pneumoniae; Streptococcus pneumoniae (PISP, N = 2)) was 0.0%. For the same compound, the “% S” value (Streptococcus pneumoniae; Streptococcus pneumoniae (PRSP, N = 2)) was 50.0%, the “% S” value (Streptococcus pneumoniae; [17]) was 67.7% and the MIC50 (Streptococcus pneumoniae; [17]) was 0.06 µg/mL (≈ 0.0801 µM). The MIC90 (Streptococcus pneumoniae; [17]) was over 8 µg/mL, the “% S” value (Streptococcus pneumoniae; Streptococcus pneumoniae (all phenotypes, N = 35)) was 62.9% and the MIC50 (Streptococcus pneumoniae; Streptococcus pneumoniae (all phenotypes, N = 35), read-out: MIC50) was 0.06 µg/mL (≈ 0.0801 µM). The MIC90 (Streptococcus pneumoniae; Streptococcus pneumoniae (all phenotypes, N = 35), read-out: MIC90) was over 8 µg/mL, the “% S” value (Streptococcus pyogenes) was 85.1% and the MIC50 (Streptococcus pyogenes; read-out: MIC50) was 0.06 µg/mL (≈ 0.0801 µM). For the same compound, the MIC90 (Streptococcus pyogenes; read-out: MIC90) was 8 µg/mL (≈ 10.7 µM), the “% S” value [6] was 74.0% and the MIC50 ([6]; read-out: MIC50) was 0.06 µg/mL (≈ 0.0801 µM). For the same compound, the MIC90 ([6]; read-out: MIC90) was over 8 µg/mL, the “% S” value (Viridans streptococci) was 53.2% and the MIC50 (Viridans streptococci; read-out: MIC50) was 0.06 µg/mL (≈ 0.0801 µM). It also gave an MIC90 (Viridans streptococci; read-out: MIC90) of over 8 µg/mL, an MIC50 (Citrobacter koseri) of 8 µg/mL (≈ 10.7 µM) and an MIC90 (Citrobacter koseri) of over 8 µg/mL. For the same compound, the MIC50 (Klebsiella oxytoca) was over 8 µg/mL, the MIC90 (Klebsiella oxytoca) was over 8 µg/mL and the “% S” value (Haemophilus influenzae; [18]) was 100.0%. For the same compound, the “MIC Range” value (Haemophilus influenzae; [18]) was “≦0.004-2 μg/mL”, the “% S” value (Haemophilus influenzae; [19]) was 100.0% and the “MIC Range” value (Haemophilus influenzae; [19]) was “≦0.004-2 μg/mL”. The “% S” value (Haemophilus influenzae; [20]) was 100.0%, the “MIC Range” value (Haemophilus influenzae; [20]) was 0.06 to 1 µg/mL and the MIC50 (Haemophilus influenzae; [18]) was 0.5 µg/mL (≈ 0.668 µM). It also gave an MIC90 (Haemophilus influenzae; [18]) of 1 µg/mL (≈ 1.34 µM), an MIC50 (Haemophilus influenzae; [19]) of 0.5 µg/mL (≈ 0.668 µM) and an MIC90 (Haemophilus influenzae; [19]) of 2 µg/mL (≈ 2.67 µM). It also gave an MIC50 (Haemophilus influenzae; [20]) of 0.5 µg/mL (≈ 0.668 µM), an MIC90 (Haemophilus influenzae; [20]) of 1 µg/mL (≈ 1.34 µM) and an MIC50 (Legionella pneumophila; Legionella pneumophila) of 0.12 µg/mL (≈ 0.16 µM). The MIC90 (Legionella pneumophila; Legionella pneumophila) was 1 µg/mL (≈ 1.34 µM), the “MIC Range” value (Legionella pneumophila; Legionella pneumophila (N = 50)) was 0.03 to 1 µg/mL and the “% S” value (Moraxella catarrhalis) was 100.0%. For the same compound, the MIC50 (Moraxella catarrhalis) was 0.03 µg/mL (≈ 0.0401 µM), the MIC90 (Moraxella catarrhalis) was 0.03 µg/mL (≈ 0.0401 µM) and the “MIC Range” value (Moraxella catarrhalis) was 0.015 to 0.06 µg/mL. The MIC50 (Morganella morganii) was over 8 µg/mL, the MIC90 (Morganella morganii) was over 8 µg/mL and the MIC90 (S. aureus [7]; MRSA, S. aureus MRSA-CR, N 17, read-out: MIC90) was over 8 µg/mL. For the same compound, the MIC90 (S. aureus [7]; MRSA, S. aureus MRSA-CS, N 9, read-out: MIC90 (due to limited isolates, highest MIC value is given)) was over 8 µg/mL, the MIC90 (S. aureus [7]; MSSA, S. aureus MSSA-CR, N 17, read-out: MIC90) was over 8 µg/mL and the MIC90 (S. aureus [7]; MSSA, S. aureus MSSA-CS, N 144, read-out: MIC90) was over 8 µg/mL. The MIC90 (S. epidermidis; MRSE, S. epidermidis MRSE-CR, N 24) was over 8 µg/mL, the MIC90 (S. epidermidis; MRSE, S. epidermidis MRSE-CS, N 27) was over 8 µg/mL and the MIC90 (S. epidermidis; S. epidermidis MSSE-CR, N 10) was over 8 µg/mL. It also gave an MIC90 (S. epidermidis; S. epidermidis MSSE-CS, N 50) of over 8 µg/mL.
